# pEC50, pIC50: −log10 of the molar value.
# Tests used:
# in vitro = conditions: human
# HL-60 = HL-60 differentiation potency; type: cell-based; conditions: Homo sapiens
smiles,measurement,setting,value
"C[C@H]1[C@H](Oc2ccc(C#CC(=O)O)cc2)O[C@@H]2O[C@@]3(C)CC[C@H]4[C@H](C)CC[C@@H]1[C@@]24OO3 [Compound 139, 3-(4-(((3R,5aS,6R,8aS, 9R,10R,12R, 12aR)-3,6,9-trimethyldeca-hydro-12H-3,12-epoxy[1,2]dioxepino[4,3-i]isochromen-10-yl)oxy)phenyl) propiolic acid]",pIC50,in vitro,5.52
same,pEC50,HL-60,7.51
"C[C@H]1[C@@H](OC[C@]2(F)CC[C@H](C(=O)O)CC2)O[C@@H]2O[C@@]3(C)CC[C@H]4[C@H](C)CC[C@@H]1[C@@]24OO3 [Compound 140, (1S,4r)-4-fluoro-4-((((3R,5aS,6R,8aS, 9R,10S,12R, 12aR)-3,6,9-trimethyldeca-hydro-12H-3,12-epoxy[1,2]dioxepino[4,3-i]isochromen-10-yl)oxy)methyl) cyclohexane-1-carboxylic acid]",pIC50,in vitro,4.72
same,pEC50,HL-60,6.50
"C[C@H]1[C@@H](OCc2cc(C(=O)O)cc(C(=O)O)c2)O[C@@H]2O[C@@]3(C)CC[C@H]4[C@H](C)CC[C@@H]1[C@@]24OO3 [Compound 141, 5-((((3R,5aS,6R,8aS, 9R,10S,12R, 12aR)-3,6,9-trimethyldeca-hydro-12H-3,12-epoxy[1,2]dioxepino[4,3-i]isochromen-10-yl)oxy)methyl) isophthalic acid]",pIC50,in vitro,< 4.70
same,pEC50,HL-60,< 4.70
"C[C@H]1[C@@H](Oc2ccc(C(=O)NCC(=O)O)cc2)O[C@@H]2O[C@@]3(C)CC[C@H]4[C@H](C)CC[C@@H]1[C@@]24OO3 [Compound 142, (4-(((3R,5aS,6R,8aS, 9R,10S,12R, 12aR)-3,6,9-trimethyldeca-hydro-12H-3,12-epoxy[1,2]dioxepino[4,3-i]isochromen-10-yl)oxy)benzoyl) glycine]",pIC50,in vitro,< 4.70
same,pEC50,HL-60,5.74
"C[C@H]1[C@@H](OC[C@H]2CC[C@@H](C(=O)NC3CC3)CC2)O[C@@H]2O[C@@]3(C)CC[C@H]4[C@H](C)CC[C@@H]1[C@@]24OO3 [Compound 143, (1R,4s)-N-cyclopropyl-4-((((3R,5aS,6R,8aS, 9R,10S,12R, 12aR)-3,6,9-trimethyldeca-hydro-12H-3,12-epoxy[1,2]dioxepino[4,3-i]isochromen-10-yl)oxy)methyl) cyclohexane-1-carboxamide]",pIC50,in vitro,6.00
same,pEC50,HL-60,7.14
"C[C@H]1[C@@H](OC[C@H]2CC[C@@H](C(=O)O)N2C)O[C@@H]2O[C@@]3(C)CC[C@H]4[C@H](C)CC[C@@H]1[C@@]24OO3 [Compound 144, (2S,5R)-1-methyl-5-((((3R,5aS,6R,8aS, 9R,10S,12R, 12aR)-3,6,9-trimethyldeca-hydro-12H-3,12-epoxy[1,2]dioxepino[4,3-i]isochromen-10-yl)oxy)methyl) pyrrolidine-2-carboxylic acid]",pIC50,in vitro,4.84
same,pEC50,HL-60,5.47
"C[C@H]1[C@@H](OC(=O)Cn2ccc(C(F)(F)F)n2)O[C@@H]2O[C@@]3(C)CC[C@H]4[C@H](C)CC[C@@H]1[C@@]24OO3 [Compound 145, (3R,5aS,6R,8aS, 9R,10R,12R, 12aR)-3,6,9-trimethyldeca-hydro-12H-3,12-epoxy[1,2] dioxepino[4,3-i] isochromen-10-yl 2-(3-(trifluoro-methyl)-1H-pyrazol-1-yl)acetate]",pIC50,in vitro,6.96
same,pEC50,HL-60,7.14
"CC(C)C(C(=O)O)c1ccc(O[C@H]2O[C@@H]3O[C@@]4(C)CC[C@H]5[C@H](C)CC[C@@H]([C@H]2C)[C@@]35OO4)cc1 (stereo partly drawn) [Compound 146, 3-methyl-2-(4-(((3R,5aS,6R,8aS, 9R,10S,12R, 12aR)-3,6,9-trimethyldeca-hydro-12H-3,12-epoxy[1,2]dioxepino[4,3-i]isochromen-10-yl)oxy)phenyl) butanoic acid]",pIC50,in vitro,6.10
same,pEC50,HL-60,7.22
"C[C@H]1[C@@H](OC[C@H]2C[C@@H](C(=O)O)C[C@@H](C(=O)O)C2)O[C@@H]2O[C@@]3(C)CC[C@H]4[C@H](C)CC[C@@H]1[C@@]24OO3 [Compound 147, (1R,3S,5r)-5-((((3R,5aS,6R,8aS, 9R,10S,12R, 12aR)-3,6,9-trimethyldeca-hydro-12H-3,12-epoxy[1,2]dioxepino[4,3-i]isochromen-10-yl)oxy)methyl) cyclohexane-1,3-dicarboxylic acid]",pIC50,in vitro,< 4.70
same,pEC50,HL-60,< 4.70
"C[C@H]1[C@@H](OCC(=O)N2CCC(C(=O)O)CC2)O[C@@H]2O[C@@]3(C)CC[C@H]4[C@H](C)CC[C@@H]1[C@@]24OO3 [Compound 148, 1-(2-(((3R,5aS,6R,8aS, 9R,10S,12R, 12aR)-3,6,9-trimethyldeca-hydro-12H-3,12-epoxy[1,2]dioxepino[4,3-i]isochromen-10-yl)oxy)acetyl) piperidine-4-carboxylic acid]",pIC50,in vitro,< 4.70
same,pEC50,HL-60,5.16
"C[C@H]1[C@@H](Oc2ccc(C(=O)N3CC(C(=O)O)C3)cc2)O[C@@H]2O[C@@]3(C)CC[C@H]4[C@H](C)CC[C@@H]1[C@@]24OO3 [Compound 149, 1-(4-(((3R,5aS,6R,8aS, 9R,10S,12R, 12aR)-3,6,9-trimethyldeca-hydro-12H-3,12-epoxy[1,2]dioxepino[4,3-i]isochromen-10-yl)oxy)benzoyl) azetidine-3-carboxylic acid]",pIC50,in vitro,< 4.70
same,pEC50,HL-60,5.91
"C[C@H]1[C@@H](OCC(=O)N2C[C@H](F)C[C@H]2C(=O)O)O[C@@H]2O[C@@]3(C)CC[C@H]4[C@H](C)CC[C@@H]1[C@@]24OO3 [Compound 150, (2S,4R)-4-fluoro-1-(2-(((3R,5aS,6R,8aS, 9R,10S,12R, 12aR)-3,6,9-trimethyldeca-hydro-12H-3,12-epoxy[1,2]dioxepino[4,3-i]isochromen-10-yl)oxy)acetyl) pyrrolidine-2-carboxylic acid]",pIC50,in vitro,< 4.70
same,pEC50,HL-60,< 4.70
"C[C@H]1[C@@H](OCC(=O)N2C[C@H]3[C@@H]([C@H]2C(=O)O)C3(C)C)O[C@@H]2O[C@@]3(C)CC[C@H]4[C@H](C)CC[C@@H]1[C@@]24OO3 [Compound 151, (1R,2S,5S)-6,6-dimethyl-3-(2-(((3R,5aS,6R,8aS, 9R,10S,12R, 12aR)-3,6,9-trimethyldeca-hydro-12H-3,12-epoxy[1,2]dioxepino[4,3-i]isochromen-10-yl)oxy)acetyl)-3-azabicyclo[3.1.0] hexane-2-carboxylic acid]",pIC50,in vitro,< 4.70
same,pEC50,HL-60,5.80
"C[C@H]1[C@@H](OCC(=O)N[C@H]2CC[C@@H](C(=O)O)C2)O[C@@H]2O[C@@]3(C)CC[C@H]4[C@H](C)CC[C@@H]1[C@@]24OO3 [Compound 152, (1R,3S)-3-(2-(((3R,5aS,6R, 8aS,9R,10S,12R, 12aR)-3,6,9-trimethyldeca-hydro-12H-3,12-epoxy[1,2]dioxepino[4,3-i]isochromen-10-yl)oxy)acetamido) cyclopentane-1-carboxylic acid]",pIC50,in vitro,< 4.70
same,pEC50,HL-60,5.07
"C[C@H]1[C@@H](OC[C@H]2CC[C@@H](C(=O)NC(C)(C)C)CC2)O[C@@H]2O[C@@]3(C)CC[C@H]4[C@H](C)CC[C@@H]1[C@@]24OO3 [Compound 153, (1R,4s)-N-(tert-butyl)-4-((((3R,5aS,6R,8aS, 9R,10S,12R, 12aR)-3,6,9-trimethyldeca-hydro-12H-3,12-epoxy[1,2]dioxepino[4,3-i]isochromen-10-yl)oxy)methyl) cyclohexane-1-carboxamide]",pIC50,in vitro,6.27
same,pEC50,HL-60,7.01
"C[C@H]1[C@@H](Oc2ccc3c(c2)OC(C(=O)O)C3)O[C@@H]2O[C@@]3(C)CC[C@H]4[C@H](C)CC[C@@H]1[C@@]24OO3 (stereo partly drawn) [Compound 154, 6-(((3R,5aS,6R,8aS, 9R,10S,12R, 12aR)-3,6,9-trimethyldeca-hydro-12H-3,12-epoxy[1,2]dioxepino[4,3-i]isochromen-10-yl)oxy)-2,3-dihydrobenzo-furan-2-carboxylic acid]",pIC50,in vitro,5.05
same,pEC50,HL-60,7.15
"C[C@H]1[C@@H](OCc2ccc(C(=O)O)c(C(F)(F)F)c2)O[C@@H]2O[C@@]3(C)CC[C@H]4[C@H](C)CC[C@@H]1[C@@]24OO3 [Compound 155, 2-(trifluoromethyl)-4-((((3R,5aS,6R, 8aS,9R,10S,12R, 12aR)-3,6,9-trimethyldeca-hydro-12H-3,12-epoxy[1,2]dioxepino[4,3-i]isochromen-10-yl)oxy)methyl) benzoic acid]",pIC50,in vitro,< 4.70
same,pEC50,HL-60,6.76
"C[C@H]1[C@@H](OC[C@H]2CC[C@@H](CO)CC2)O[C@@H]2O[C@@]3(C)CC[C@H]4[C@H](C)CC[C@@H]1[C@@]24OO3 [Compound 156, ((1R,4s)-4-((((3R,5aS,6R, 8aS,9R,10S,12R, 12aR)-3,6,9-trimethyldeca-hydro-12H-3,12-epoxy[1,2]dioxepino[4,3-i]isochromen-10-yl)oxy)methyl)cyclohexyl) methanol]",pIC50,in vitro,6.57
same,pEC50,HL-60,7.12
"C[C@H]1[C@@H](OC2C[C@H]3CC(C(=O)O)C[C@@H]23)O[C@@H]2O[C@@]3(C)CC[C@H]4[C@H](C)CC[C@@H]1[C@@]24OO3 (stereo partly drawn) [Compound 157, (1R,5R)-6-(((3R,5aS,6R,8aS, 9R,10S,12R, 12aR)-3,6,9-trimethyldeca-hydro-12H-3,12-epoxy[1,2]dioxepino[4,3-i]isochromen-10-yl)oxy)bicyclo [3.2.0]heptane-3-carboxylic acid]",pIC50,in vitro,< 4.70
same,pEC50,HL-60,6.10
"C[C@H]1[C@@H](OC2C3CC(C(=O)O)CC32)O[C@@H]2O[C@@]3(C)CC[C@H]4[C@H](C)CC[C@@H]1[C@@]24OO3 (stereo partly drawn) [Compound 158, 6-(((3R,5aS,6R,8aS, 9R,10S,12R, 12aR)-3,6,9-trimethyldeca-hydro-12H-3,12-epoxy[1,2]dioxepino[4,3-i]isochromen-10-yl)oxy)bicyclo [3.1.0]hexane-3-carboxylic acid]",pIC50,in vitro,< 4.70
same,pEC50,HL-60,5.37
"C[C@H]1[C@H](OCC(=O)N2C[C@H](F)C[C@H]2C(=O)O)O[C@@H]2O[C@@]3(C)CC[C@H]4[C@H](C)CC[C@@H]1[C@@]24OO3 [Compound 159, (2S,4R)-4-fluoro-1-(2-(((3R,5aS,6R,8aS, 9R,10R,12R, 12aR)-3,6,9-trimethyldeca-hydro-12H-3,12-epoxy[1,2]dioxepino[4,3-i]isochromen-10-yl)oxy)acetyl) pyrrolidine-2-carboxylic acid]",pIC50,in vitro,< 4.70
same,pEC50,HL-60,< 4.70

# Reference: US20260242391A1 (priority 2023, published 2026)
